The results in this text go back to patent US20230061736A1, “GPR119 AGONISTS” (Kallyope, Inc., priority 2019, published 2023).

The assay has as its target T1, human GPR119 (hGPR119) (Homo sapiens, UniProt Q8TDV5).
T1 construct: expressed in transfected cells
T1 sequence (Q8TDV5 1-335): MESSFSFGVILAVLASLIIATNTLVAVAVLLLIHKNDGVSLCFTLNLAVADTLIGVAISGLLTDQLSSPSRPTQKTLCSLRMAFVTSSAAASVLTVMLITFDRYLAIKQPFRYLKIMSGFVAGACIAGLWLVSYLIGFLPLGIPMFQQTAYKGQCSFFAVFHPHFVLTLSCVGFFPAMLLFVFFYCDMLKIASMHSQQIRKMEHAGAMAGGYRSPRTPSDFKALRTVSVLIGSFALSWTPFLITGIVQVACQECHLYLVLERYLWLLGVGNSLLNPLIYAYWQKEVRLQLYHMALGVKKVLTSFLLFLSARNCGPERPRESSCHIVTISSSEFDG
Put plainly: cAMP accumulation assay (cAMP Gs dynamic HTRF kit). The class given is cell-based. The note with it: CHO-K1 cells stably expressing hGPR119, 4-parameter fit; for Emax: 1 h, % activity normalized to Max/Min controls; for EC50: cAMP accumulation. Put shortly:
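Read-out is HTRF 665/620 nm ratio after 1 h detection at ambient temperature, converted to % activity against positive and negative controls, EC50 and Max activity by 4-parameter fit. Compounds were titrated onto ~10,000 thawed hGPR119-CHO-K1 cells/well for 60 min at 37° C/5% CO2.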
Background: Changes in cAMP serve as a functional read-out for many G protein-coupled receptors.

The term Emax denotes the maximal effect, on the per cent scale that the assay sets. As usually defined, the EC50 is the concentration at which the effect is half-maximal. The low end stands for a more potent agent, the high end for a less potent agent.

As to `O=C(Cc1ccc(OCCCC2CCN(c3ncc(Cl)cn3)CC2)cc1F)N1CC[C@@H](CNCC(O)(CO)CO)C1` [Example 99, 2-[4-[3-[1-(5-chloropyrimidin-2-yl)-4-piperidyl]propoxy]-2-fluoro-phenyl]-1-[(3S)-3-[[[2,3-dihydroxy-2-(hydroxymethyl)propyl]amino]methyl]pyrrolidin-1-yl]ethanone], the Emax is not below 130% and the EC50 is not above 100 nM.
The like results for `O=C(Cc1ccc(OCCCC2CCN(c3ncc(Cl)cn3)CC2)cc1F)N1CC[C@@H](CNC(CO)(CO)CO)C1` [Example 148, 2-[4-[3-[1-(5-chloropyrimidin-2-yl)-4-piperidyl]propoxy]-2-fluoro-phenyl]-1-[(3S)-3-[[[2-hydroxy-1,1-bis(hydroxymethyl)ethyl]amino]methyl]pyrrolidin-1-yl]ethanone] were, in that order, not below 130% and not above 100 nM.
In turn, `O=C(Cc1ccc(OCCC2CCC23CCN(c2ncc(Cl)cn2)CC3)cc1F)N1CC(CNC[C@H](O)[C@@H](O)[C@H](O)[C@H](O)CO)C1` (stereo partly drawn) [Example 138, 2-[4-[2-[7-(5-chloropyrimidin-2-yl)-7-azaspiro[3.5]nonan-3-yl]ethoxy]-2-fluoro-phenyl]-1-[3-[[[(2S,3R,4R,5R)-2,3,4,5,6-pentahydroxyhexyl]amino]methyl]azetidin-1-yl]ethanone] gave a maximal response (Emax) of 50 to 100% and a half-maximal effective concentration (EC50) of 1000 to 10000 nM.
In the same order, the values of `O=C(Cc1ccc(OCCCC2CCN(c3ncc(Cl)cn3)CC2)cc1F)N1CC(CN[C@@H]2C[C@H](O)[C@@H](O)[C@H]2O)C1` (racemic) [Example 49, 2-[4-[3-[1-(5-chloropyrimidin-2-yl)-4-piperidyl]propoxy]-2-fluoro-phenyl]-1-[3-[[[rac-(1R,2S,3R,4S)-2,3,4-trihydroxycyclopentyl]amino]methyl]azetidin-1-yl]ethanone] are not below 130% and 100 to 1000 nM.
In the same order, the values of `O=C(Cc1c(F)cc(OCCC2CC(C3CCN(c4ncc(Cl)cn4)CC3)C2)cc1F)N1CC(CNC[C@H](O)[C@@H](O)[C@H](O)[C@H](O)CO)C1` (stereo partly drawn) [Example 124, 2-[4-[2-[3-[1-(5-chloropyrimidin-2-yl)-4-piperidyl]cyclobutyl]ethoxy]-2,6-difluoro-phenyl]-1-[3-[[[(2S,3R,4R,5R)-2,3,4,5,6-pentahydroxyhexyl]amino]methyl]azetidin-1-yl]ethanone] are 100 to 130% and not above 100 nM.
In the same order, the values of `O=C(Cc1ccc(OCCCC2CCN(c3ncc(Cl)cn3)CC2)cc1F)N1CC(CNC[C@@H](O)[C@H](O)[C@H](O)CO)C1` [Example 167, 2-[4-[3-[1-(5-chloropyrimidin-2-yl)-4-piperidyl]propoxy]-2-fluoro-phenyl]-1-[3-[[[(2R,38,4R)-2,3,4,5-tetrahydroxypentyl]amino]methyl]azetidin-1-yl]ethanone] are 100 to 130% and not above 100 nM.
In the case of `COCc1cnc(N2CCC(CCCOc3ccc(CC(=O)N4CC(C(=O)NCCNC(=O)NC(CO)(CO)CO)C4)c(F)c3)CC2)nc1` [Example 27, 1-[2-[2-fluoro-4-[3-[1-[5-(methoxymethyl)pyrimidin-2-yl]-4-piperidyl]propoxy]phenyl]acetyl]-N-[2-[[2-hydroxy-1,1-bis (hydroxymethyl)ethyl]carbamoylamino]ethyl]azetidine-3-carboxamide], the Emax was 100 to 130% and the EC50 fell in the range of 100 to 1000 nM.
In the same order, the values of `O=C(Cc1ccc(OCCCC2CCN(c3ncc(Cl)cn3)CC2)cc1F)NCCCCCNC(CO)CO` [Example 1, 2-[4-[3-[1-(5-chloropyrimidin-2-yl)-4-piperidyl]propoxy]-2-fluoro-phenyl]-N-[5-[[2-hydroxy-1-(hydroxymethyl)ethyl]amino]pentyl]acetamide] are not below 130% and 100 to 1000 nM.
The like results for `O=C(NC[C@H](O)[C@@H](O)[C@H](O)[C@H](O)CO)[C@H]1CCN(C(=O)Cc2c(F)cc(OCCCC3CCN(c4ncc(Cl)cn4)CC3)cc2F)C1` [Example 128, (3S)-1-[2-[4-[3-[1-(5-chloropyrimidin-2-yl)-4-piperidyl]propoxy]-2,6-difluoro-phenyl]acetyl]-N-[(2S,3R,4R,5R)-2,3,4,5,6-pentahydroxyhexyl]pyrrolidine-3-carboxamide] were, in that order, not below 130% and not above 100 nM.
The like results for `O=C(Cc1ccc(OCCCC2CC23CCN(c2ncc(Cl)cn2)CC3)cc1F)N1CC(CNC[C@H](O)[C@@H](O)[C@H](O)[C@H](O)CO)C1` (stereo partly drawn) [Example 142, 2-[4-[3-[6-(5-chloropyrimidin-2-yl)-6-azaspiro[2.5]octan-2-yl]propoxy]-2-fluoro-phenyl]-1-[3-[[[(2S,3R,4R,5R)-2,3,4,5,6-pentahydroxyhexyl]amino]methyl]azetidin-1-yl]ethanone] were, in that order, 100 to 130% and 100 to 1000 nM.
`CCc1cnc(N2CCC(CCCOc3ccc(CC(=O)N4CC(CNC(CO)(CO)CO)C4)c(F)c3)CC2)nc1` [Example 64, 1-(3-(((1,3-dihydroxy-2-(hydroxymethyl)propan-2-yl)amino)methyl)azetidin-1-yl)-2-(4-(3-(1-(5-ethylpyrimidin-2-yl)piperidin-4-yl)propoxy)-2-fluorophenyl)ethan-1-one] had a maximum response (Emax) not below 130% and an EC50 not above 100 nM.
The like results for `O=C(Cc1c(F)cc(OCCCCC2CCN(c3ncc(Cl)cn3)CC2)cc1F)N1CC(CNC[C@H](O)[C@@H](O)[C@H](O)[C@H](O)CO)C1` [Example 55, 2-(4-(4-(1-(5-chloropyrimidin-2-yl)piperidin-4-yl)butoxy)-2,6-difluorophenyl)-1-(3-((((2S,3R,4R,5R)-2,3,4,5,6-pentahydroxyhexyl)amino)methyl)azetidin-1-yl)ethan-1-one] were, in that order, not below 130% and 100 to 1000 nM.
The like results for `O=C(Cc1ccc(OCCCC2CCN(c3ncc(Cl)cn3)CC2)cc1F)N1CC(CNCC(O)(CO)CO)C1` [Example 43, 2-[4-[3-[1-(5-chloropyrimidin-2-yl)-4-piperidyl]propoxy]-2-fluoro-phenyl]-1-[3-[[[2,3-dihydroxy-2-(hydroxymethyl)propyl]amino]methyl]azetidin-1-yl]ethanone] were, in that order, 100 to 130% and not above 100 nM.
The like results for `O=C(Cc1c(F)cc(OCCCC2CCN(c3ncc(Cl)cn3)CC2)cc1F)NC(CO)(CO)CO` [Example 6, 2-[4-[3-[1-(5-chloropyrimidin-2-yl)-4-piperidyl]propoxy]-2,6-difluoro-phenyl]-N-[2-hydroxy-1,1-bis(hydroxymethyl)ethyl]acetamide] were, in that order, 100 to 130% and 100 to 1000 nM.
The compound `O=C(Cc1c(F)cc(OCCCC2CCN(c3ncc(Cl)cn3)CC2)cc1F)N1CC[C@@H](CNC(CO)(CO)CO)C1` [Example 149, 2-[4-[3-[1-(5-chloropyrimidin-2-yl)-4-piperidyl]propoxy]-2,6-difluoro-phenyl]-1-[(3S)-3-[[[2-hydroxy-1,1-bis(hydroxymethyl)ethyl]amino]methyl]pyrrolidin-1-yl]ethanone] registered a maximal effect (Emax) not below 130% and an EC50 not above 100 nM.
In the case of `O=C(Cc1c(F)cc(OCCCC2CC3(CCN(c4ncc(Cl)cn4)CC3)C2)cc1F)N1CC(CNC[C@H](O)[C@@H](O)[C@H](O)[C@H](O)CO)C1` [Example 116, 2-[4-[3-[7-(5-chloropyrimidin-2-yl)-7-azaspiro[3.5]nonan-2-yl]propoxy]-2,6-difluoro-phenyl]-1-[3-[[[(2S,3R,4R,5R)-2,3,4,5,6-pentahydroxyhexyl]amino]methyl]azetidin-1-yl]ethanone], the Emax is not below 130% and the EC50 is not above 100 nM.
The like results for `O=C(Cc1c(F)cc(OCCC2CC3(CCN(c4ncc(Cl)cn4)CC3)C2)cc1F)N1CC(CNC[C@H](O)[C@@H](O)[C@H](O)[C@H](O)CO)C1` [Example 115, 2-[4-[2-[7-(5-chloropyrimidin-2-yl)-7-azaspiro[3.5]nonan-2-yl]ethoxy]-2,6-difluoro-phenyl]-1-[3-[[[(2S,3R,4R,5R)-2,3,4,5,6-pentahydroxyhexyl]amino]methyl]azetidin-1-yl]ethanone] were, in that order, 100 to 130% and 100 to 1000 nM.
The like results for `CCOc1cnc(N2CCC(CCCOc3ccc(CC(=O)N4CC[C@@H](CNC(CO)(CO)CO)C4)c(F)c3)CC2)nc1` [Example 152, 2-[4-[3-[1-(5-ethoxypyrimidin-2-yl)-4-piperidyl]propoxy]-2-fluoro-phenyl]-1-[(3S)-3-[[[2-hydroxy-1,1-bis(hydroxymethyl)ethyl]amino]methyl]pyrrolidin-1-yl]ethanone] were, in that order, not below 130% and not above 100 nM.
In turn, `CC(C)OC(=O)N1CCC(CCCOc2ccc(CC(=O)N3CC(CNC[C@H](O)[C@@H](O)[C@H](O)[C@H](O)CO)C3)c(F)c2)CC1` [Example 112, isopropyl 4-[3-[3-fluoro-4-[2-oxo-2-[3-[[[(2S,3R,4R,5R)-2,3,4,5,6-pentahydroxyhexyl]amino]methyl]azetidin-1-yl]ethyl]phenoxy]propyl] piperidine-1-carboxylate] gave an Emax of 100 to 130% and an EC50 of 100 to 1000 nM.
In the same order, the values of `CCOc1cnc(N2CCC(CCCOc3cc(F)c(CC(=O)N4CC[C@@H](CNCC(CO)(CO)CO)C4)c(F)c3)CC2)nc1` [Example 157, 2-[4-[3-[1-(5-ethoxypyrimidin-2-yl)-4-piperidyl]propoxy]-2,6-difluoro-phenyl]-1-[(3S)-3-[[[3-hydroxy-2,2-bis(hydroxymethyl)propyl]amino]methyl]pyrrolidin-1-yl]ethanone] are not below 130% and not above 100 nM.
